Test results from ChEMBL document CHEMBL2203210, “SAR and in vivo evaluation of 4-aryl-2-aminoalkylpyrimidines as potent and selective Janus kinase 2 (JAK2) inhibitors” (Bioorg Med Chem Lett, 2012).

Legend:
[1] = Cmax in CD rat at 5 mg/kg, po; assay type: ADME, organism-based; set-up: dose 5 mg/kg, route oral; settings: in vivo
Mus musculus [2] = experiment: Inhibition of JAK2 in HEL 92.1.7 cells xenografted in po dosed nude mouse assessed as inhibition of STAT1 phosphorylation after 4 hrs; assay type: functional, organism-based
[3] = Plasma concentration in nude mouse xenografted with HEL 92.1.7 cells at 30 mg/kg, po after 4 hrs; assay type: ADME, organism-based; set-up: dose 30 mg/kg, route oral
[4] = Cmax in CD rat at 5 mg/kg, iv; assay type: ADME, organism-based; set-up: dose 5 mg/kg, route intravenous; settings: in vivo
[5] = Inhibition of p-gp
[6] = target: Vascular endothelial growth factor receptor 2 (Homo sapiens, UniProt P35968); experiment: Inhibition of KDR
[7] = Half life in athymic nude mouse at 10 mg/kg, po; assay type: ADME, organism-based; set-up: dose 10 mg/kg, route oral; settings: in vivo
Canis familiaris [8] = experiment: Dose normalized AUC in Beagle dog at 3 mg/kg, iv; assay type: ADME, organism-based, Canis lupus familiaris; set-up: dose 3 mg/kg, route intravenous; settings: in vivo
Rattus norvegicus = experiment: Dose normalized AUC in CD rat at 5 mg/kg, po; assay type: ADME, organism-based; set-up: dose 5 mg/kg, route oral; settings: in vivo
[9] = Plasma concentration in nude mouse xenografted with HEL 92.1.7 cells at 300 mg/kg, po after 4 hrs; assay type: ADME, organism-based; set-up: dose 300 mg/kg, route oral
[10] = Drug uptake in nude mouse xenografted with HEL 92.1.7 cells at 30 mg/kg, po after 4 hrs; assay type: ADME, organism-based; set-up: dose 30 mg/kg, route oral; settings: in vivo, read-out: Drug uptake
[11] = target: Tyrosine-protein kinase JAK1 (Homo sapiens, UniProt P23458); experiment: Inhibition of JAK1
Mus musculus [12] = experiment: Volume of distribution in athymic nude mouse at 10 mg/kg, po and iv; assay type: ADME, organism-based; set-up: dose 10 mg/kg, route oral; settings: in vivo
Canis familiaris [13] = experiment: Dose normalized AUC in Beagle dog at 3 mg/kg, po; assay type: ADME, organism-based, Canis lupus familiaris; set-up: dose 3 mg/kg, route oral; settings: in vivo
Cytochrome P450 3A4 = Cytochrome P450 3A4 (Homo sapiens, UniProt P08684); experiment: Inhibition of CYP3A4; assay type: ADME
[14] = Plasma concentration in nude mouse xenografted with HEL 92.1.7 cells at 100 mg/kg, po after 4 hrs; assay type: ADME, organism-based; set-up: dose 100 mg/kg, route oral
Cynomolgus monkey = experiment: Dose normalized AUC in cynomolgus monkey at 3 mg/kg, iv; assay type: ADME, organism-based, Macaca fascicularis; set-up: dose 3 mg/kg, route intravenous; settings: in vivo
[15] = Oral bioavailability in CD rat at 5 mg/kg; assay type: ADME, organism-based; settings: in vivo
[16] = Cmax in athymic nude mouse at 10 mg/kg, po; assay type: ADME, organism-based; set-up: dose 10 mg/kg, route oral; settings: in vivo
HEL = experiment: Anitumour activity against HEL 92.1.7 cells xenografted in nude mouse assessed as tumor growth inhibition at 300 mg/kg, po bid administered up to 14 days relative to vehicle-treated control; assay type: functional, Homo sapiens; settings: 336 h, read-out: TGI
Cytochrome P450 2C9 = Cytochrome P450 2C9 (Homo sapiens, UniProt P11712); experiment: Inhibition of CYP2C9; assay type: ADME
Cytochrome P450 2D6 = Cytochrome P450 2D6 (Homo sapiens, UniProt P10635); experiment: Inhibition of CYP2D6; assay type: ADME
[17] = target: Mitogen-activated protein kinase kinase kinase 9 (Homo sapiens, UniProt P80192); experiment: Inhibition of MLK1
[18] = Half life in CD rat at 5 mg/kg, po; assay type: ADME, organism-based; set-up: dose 5 mg/kg, route oral; settings: in vivo
Mus musculus [19] = experiment: Inhibition of JAK2 in HEL 92.1.7 cells xenografted in nude mouse assessed as inhibition of STAT1 phosphorylation at 300 mg/kg, po after 4 hrs relative to vehicle-treated control; assay type: functional
[20] = target: Non-receptor tyrosine-protein kinase TYK2 (Homo sapiens, UniProt P29597); experiment: Inhibition of TYK2
[21] = target: Platelet-derived growth factor receptor alpha (Homo sapiens, UniProt P16234); experiment: Inhibition of PDGFRA
Mus musculus [22] = experiment: Inhibition of JAK2 in HEL 92.1.7 cells xenografted in nude mouse assessed as inhibition of STAT3 phosphorylation at 300 mg/kg, po after 4 hrs relative to vehicle-treated control; assay type: functional
[23] = Oral bioavailability in athymic nude mouse at 10 mg/kg; assay type: ADME, organism-based; settings: in vivo
[24] = target: Voltage-gated inwardly rectifying potassium channel KCNH2 (Homo sapiens, UniProt Q12809); experiment: Inhibition of human ERG
[25] = Oral bioavailability in cynomolgus monkey at 3 mg/kg; assay type: ADME, organism-based, Macaca fascicularis; settings: in vivo
[26] = Metabolic stability in mouse liver microsomes assessed as compound remaining after 30 mins; assay type: ADME, Microsome; settings: read-out: Stability
[27] = Half life in Beagle dog at 3 mg/kg, iv; assay type: ADME, organism-based, Canis lupus familiaris; set-up: dose 3 mg/kg, route intravenous; settings: in vivo

Mitogen-activated protein kinase kinase kinase 9, sequence (P80192 whole entry): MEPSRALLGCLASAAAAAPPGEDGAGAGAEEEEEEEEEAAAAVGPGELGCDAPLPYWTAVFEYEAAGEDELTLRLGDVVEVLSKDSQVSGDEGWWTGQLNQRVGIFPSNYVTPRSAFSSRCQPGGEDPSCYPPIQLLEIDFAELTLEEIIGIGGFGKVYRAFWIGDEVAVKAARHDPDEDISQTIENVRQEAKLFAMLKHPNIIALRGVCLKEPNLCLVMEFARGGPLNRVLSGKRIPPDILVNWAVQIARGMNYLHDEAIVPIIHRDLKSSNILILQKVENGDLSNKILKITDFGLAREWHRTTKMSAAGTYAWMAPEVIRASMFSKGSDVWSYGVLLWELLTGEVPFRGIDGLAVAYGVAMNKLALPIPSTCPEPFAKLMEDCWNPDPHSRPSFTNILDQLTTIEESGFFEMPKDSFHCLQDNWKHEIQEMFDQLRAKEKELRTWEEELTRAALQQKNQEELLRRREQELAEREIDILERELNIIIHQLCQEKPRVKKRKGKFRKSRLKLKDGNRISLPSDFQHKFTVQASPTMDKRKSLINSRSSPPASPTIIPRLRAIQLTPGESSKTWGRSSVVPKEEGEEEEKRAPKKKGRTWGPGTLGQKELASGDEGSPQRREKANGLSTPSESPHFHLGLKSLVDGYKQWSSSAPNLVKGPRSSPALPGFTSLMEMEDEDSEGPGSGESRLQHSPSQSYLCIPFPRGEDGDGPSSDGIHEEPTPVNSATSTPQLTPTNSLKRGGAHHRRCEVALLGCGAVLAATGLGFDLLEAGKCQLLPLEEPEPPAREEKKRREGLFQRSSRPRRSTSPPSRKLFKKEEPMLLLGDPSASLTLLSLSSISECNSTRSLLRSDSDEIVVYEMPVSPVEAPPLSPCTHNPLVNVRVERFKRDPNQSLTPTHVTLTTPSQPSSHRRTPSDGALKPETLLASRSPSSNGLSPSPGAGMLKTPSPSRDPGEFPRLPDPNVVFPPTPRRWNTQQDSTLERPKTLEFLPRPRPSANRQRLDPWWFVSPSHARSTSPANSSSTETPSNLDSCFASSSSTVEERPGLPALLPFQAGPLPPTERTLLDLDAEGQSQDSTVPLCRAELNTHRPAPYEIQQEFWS
Voltage-gated inwardly rectifying potassium channel KCNH2, sequence (Q12809 whole entry): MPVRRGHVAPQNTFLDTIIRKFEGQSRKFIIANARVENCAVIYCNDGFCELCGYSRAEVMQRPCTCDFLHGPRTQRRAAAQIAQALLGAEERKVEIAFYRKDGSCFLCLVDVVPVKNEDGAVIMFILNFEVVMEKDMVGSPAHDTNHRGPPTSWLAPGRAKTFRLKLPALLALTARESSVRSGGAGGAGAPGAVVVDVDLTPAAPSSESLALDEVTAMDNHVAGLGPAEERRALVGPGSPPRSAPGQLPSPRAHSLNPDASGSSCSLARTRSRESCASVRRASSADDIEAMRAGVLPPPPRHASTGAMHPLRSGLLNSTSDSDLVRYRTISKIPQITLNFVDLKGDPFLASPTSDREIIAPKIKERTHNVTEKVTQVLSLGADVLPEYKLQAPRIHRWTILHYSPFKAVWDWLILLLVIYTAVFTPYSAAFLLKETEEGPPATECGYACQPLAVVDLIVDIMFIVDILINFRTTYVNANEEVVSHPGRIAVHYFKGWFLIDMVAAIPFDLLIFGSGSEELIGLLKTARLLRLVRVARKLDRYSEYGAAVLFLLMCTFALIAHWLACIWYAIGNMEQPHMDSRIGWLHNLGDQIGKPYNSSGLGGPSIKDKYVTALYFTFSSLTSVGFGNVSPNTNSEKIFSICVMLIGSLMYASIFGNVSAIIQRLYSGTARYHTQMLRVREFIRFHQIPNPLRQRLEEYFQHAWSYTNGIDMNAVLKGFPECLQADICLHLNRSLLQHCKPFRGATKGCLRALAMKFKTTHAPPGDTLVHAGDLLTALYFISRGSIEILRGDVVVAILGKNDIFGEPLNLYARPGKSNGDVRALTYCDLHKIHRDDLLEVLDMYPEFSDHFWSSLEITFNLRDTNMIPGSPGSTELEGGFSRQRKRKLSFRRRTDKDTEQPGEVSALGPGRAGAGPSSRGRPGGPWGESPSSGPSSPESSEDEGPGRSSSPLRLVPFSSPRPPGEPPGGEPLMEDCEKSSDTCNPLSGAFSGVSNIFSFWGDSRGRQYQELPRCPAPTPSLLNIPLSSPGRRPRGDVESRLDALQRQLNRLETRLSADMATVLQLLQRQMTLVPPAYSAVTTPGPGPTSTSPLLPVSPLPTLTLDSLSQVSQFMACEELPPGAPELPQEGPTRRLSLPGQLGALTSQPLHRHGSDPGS
Tyrosine-protein kinase JAK1, sequence (P23458 whole entry): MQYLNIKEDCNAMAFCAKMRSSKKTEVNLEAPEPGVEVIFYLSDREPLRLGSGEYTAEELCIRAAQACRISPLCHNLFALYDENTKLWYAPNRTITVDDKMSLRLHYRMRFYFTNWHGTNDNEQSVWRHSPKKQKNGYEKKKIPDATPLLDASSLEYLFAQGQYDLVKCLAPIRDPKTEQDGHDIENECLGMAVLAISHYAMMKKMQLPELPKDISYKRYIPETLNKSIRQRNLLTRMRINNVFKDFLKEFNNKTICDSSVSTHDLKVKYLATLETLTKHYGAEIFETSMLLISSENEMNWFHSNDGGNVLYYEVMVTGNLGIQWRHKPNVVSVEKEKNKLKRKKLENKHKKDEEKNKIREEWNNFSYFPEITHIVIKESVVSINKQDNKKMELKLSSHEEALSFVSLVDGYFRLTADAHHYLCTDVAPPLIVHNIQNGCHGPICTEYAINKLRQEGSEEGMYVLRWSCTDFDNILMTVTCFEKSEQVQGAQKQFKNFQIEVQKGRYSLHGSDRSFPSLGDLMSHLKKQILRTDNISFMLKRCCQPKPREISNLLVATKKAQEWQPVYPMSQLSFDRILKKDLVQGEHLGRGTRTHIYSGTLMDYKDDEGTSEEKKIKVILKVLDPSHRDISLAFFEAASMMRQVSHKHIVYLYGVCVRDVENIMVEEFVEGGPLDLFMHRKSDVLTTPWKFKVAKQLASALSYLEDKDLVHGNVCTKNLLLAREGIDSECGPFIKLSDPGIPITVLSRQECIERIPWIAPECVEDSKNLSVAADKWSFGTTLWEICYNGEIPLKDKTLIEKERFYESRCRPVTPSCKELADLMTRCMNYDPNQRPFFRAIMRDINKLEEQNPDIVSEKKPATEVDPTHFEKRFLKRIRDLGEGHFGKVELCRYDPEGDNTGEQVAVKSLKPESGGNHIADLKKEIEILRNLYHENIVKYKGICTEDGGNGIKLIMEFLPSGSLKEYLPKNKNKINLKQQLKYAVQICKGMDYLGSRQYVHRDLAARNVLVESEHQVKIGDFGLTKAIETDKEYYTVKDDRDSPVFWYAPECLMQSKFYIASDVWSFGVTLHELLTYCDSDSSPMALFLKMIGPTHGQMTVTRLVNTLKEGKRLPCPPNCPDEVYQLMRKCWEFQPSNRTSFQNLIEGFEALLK
Non-receptor tyrosine-protein kinase TYK2, sequence (P29597 whole entry): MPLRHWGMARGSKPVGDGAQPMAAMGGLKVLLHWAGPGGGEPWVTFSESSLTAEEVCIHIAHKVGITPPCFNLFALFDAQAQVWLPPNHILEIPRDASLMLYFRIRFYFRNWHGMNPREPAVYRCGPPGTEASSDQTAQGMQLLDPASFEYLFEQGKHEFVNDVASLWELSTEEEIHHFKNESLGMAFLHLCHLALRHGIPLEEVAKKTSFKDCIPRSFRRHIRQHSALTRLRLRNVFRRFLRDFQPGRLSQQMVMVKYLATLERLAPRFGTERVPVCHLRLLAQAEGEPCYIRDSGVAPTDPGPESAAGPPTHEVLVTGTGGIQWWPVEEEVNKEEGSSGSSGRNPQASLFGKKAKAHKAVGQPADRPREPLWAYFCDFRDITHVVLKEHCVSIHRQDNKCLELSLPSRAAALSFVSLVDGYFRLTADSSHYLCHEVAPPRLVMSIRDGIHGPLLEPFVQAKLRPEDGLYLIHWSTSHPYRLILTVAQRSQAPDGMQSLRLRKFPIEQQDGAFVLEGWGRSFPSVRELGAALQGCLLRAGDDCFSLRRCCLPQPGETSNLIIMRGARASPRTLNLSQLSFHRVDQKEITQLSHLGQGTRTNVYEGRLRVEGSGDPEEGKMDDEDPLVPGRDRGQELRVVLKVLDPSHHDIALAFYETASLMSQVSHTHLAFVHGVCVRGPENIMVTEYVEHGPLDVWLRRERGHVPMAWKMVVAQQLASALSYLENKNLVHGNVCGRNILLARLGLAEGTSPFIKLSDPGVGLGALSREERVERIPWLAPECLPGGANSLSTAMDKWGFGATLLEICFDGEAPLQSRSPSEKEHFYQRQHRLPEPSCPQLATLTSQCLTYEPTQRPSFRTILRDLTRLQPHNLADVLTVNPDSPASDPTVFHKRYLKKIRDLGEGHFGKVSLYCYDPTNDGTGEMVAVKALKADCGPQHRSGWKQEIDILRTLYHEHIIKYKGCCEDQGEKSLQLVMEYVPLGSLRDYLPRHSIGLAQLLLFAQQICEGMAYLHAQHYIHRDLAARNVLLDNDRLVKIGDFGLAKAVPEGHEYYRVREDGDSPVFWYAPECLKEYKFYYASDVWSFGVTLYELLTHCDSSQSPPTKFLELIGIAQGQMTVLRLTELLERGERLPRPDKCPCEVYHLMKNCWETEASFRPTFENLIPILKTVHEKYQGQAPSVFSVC
Cytochrome P450 3A4, sequence (P08684 whole entry): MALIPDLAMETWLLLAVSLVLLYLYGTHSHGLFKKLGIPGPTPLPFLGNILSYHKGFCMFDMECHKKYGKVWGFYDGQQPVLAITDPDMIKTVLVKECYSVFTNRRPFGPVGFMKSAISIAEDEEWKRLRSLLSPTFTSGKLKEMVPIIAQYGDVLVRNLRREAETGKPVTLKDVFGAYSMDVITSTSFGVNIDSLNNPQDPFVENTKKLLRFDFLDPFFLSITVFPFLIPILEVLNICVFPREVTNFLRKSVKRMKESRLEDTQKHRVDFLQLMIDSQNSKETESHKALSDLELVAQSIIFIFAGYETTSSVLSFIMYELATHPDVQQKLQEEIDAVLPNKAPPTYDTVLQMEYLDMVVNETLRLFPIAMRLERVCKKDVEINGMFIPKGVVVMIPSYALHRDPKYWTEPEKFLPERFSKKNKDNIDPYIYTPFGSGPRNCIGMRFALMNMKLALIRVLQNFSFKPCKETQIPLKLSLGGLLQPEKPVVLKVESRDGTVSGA

`O=C(Nc1ccc(-c2ccnc(Nc3ccc(N4CCOCC4)cc3)n2)cc1)[C@H]1CCCN1` showed a Cmax [1] of 3.53 µM, an IC50 (Mus musculus [2]) of 1390 nM and an ED50 (Mus musculus [2]; po) of 42 mg/kg. It also gave a concentration at 4 h [3] of 0.83 µM, a Cmax [4] of 13 µM and an INH [5] of over 20 µM. The IC50 [6] was 484 nM, the half-life [7] was 1.94 h and the AUC/dose (Canis familiaris [8]) was 1.47 µM·kg·h/mg. The AUC/dose (Rattus norvegicus) was 8.54 µM·kg·h/mg, the concentration at 4 h [9] was 20.2 µM and the concentration at 4 h [10] was 2 µM. It also gave an IC50 [11] of 134 nM, a Vd (Mus musculus [12]) of 5.319 L/kg and an AUC/dose (Canis familiaris [13]) of 0.68 µM·kg·h/mg. For the same compound, the INH (Cytochrome P450 3A4) was “>= 20 uM”, the concentration at 4 h [14] was 5.35 µM and the AUC/dose (Cynomolgus monkey) was 1.76 µM·kg·h/mg. For the same compound, the bioavailability [15] was 53.6%, the Cmax [16] was 0.57 µM and the inhibition in vivo at 300 mg/kg (HEL) was 70%. The INH (Cytochrome P450 2C9) was “>= 20 uM”, the INH (Cytochrome P450 2D6) was “>= 20 uM” and the IC50 [17] was 370 nM. The half-life [18] was 3.23 h, the inhibition in vivo at 300 mg/kg (Mus musculus [19]) was 88% and the IC50 [20] was 348 nM. For the same compound, the IC50 [21] was 547 nM, the inhibition in vivo at 300 mg/kg (Mus musculus [22]) was 55% and the bioavailability [23] was 54.5%. It also gave an INH [24] of 16 µM, a bioavailability [25] of 68.6% and a remaining at 0.5 h [26] of 62%. It also gave a half-life [27] of 6 h.
